US5160742A, “System for delivering an active substance for sustained release” (Abbott Laboratories, priority 1991, dated 1992)

What was measured:
Type in all cases: physicochemical
[1] = Suspension stability study: amoxicillin released in syrup; settings: 30° C.
Protocol: Samples of particles having each of the structure from Table 11 were suspended at a concentration of 250 mg amoxicillin per 5 ml in sucrose-based syrups adjusted to different pH's, the formulations of these syrups are set forth in Table 12, were stored at 30° C. and shaken daily. Samples were removed for testing at 1 hours, 1 day, 7 days and 14 days. Encapsulated drug and undissolved particulate matter were removed from the suspensions by filtration through a 35 micron filter. The clarified syrups were diluted with mobile phase of pH 5.0 potassium phosphate buffer containing 4% acetonitrile and filtered again through a 0.45 micron filter prior to analysis by high pressure liquid chromatography (HPLC). The method of quantitating the amount of amoxicillin released in the syrup solutions was adapted from the USP method for amoxicillin described on pages 2088-2089 of Supplement 1 in USP XXII-NF XVII.

[2] = Dissolution of acetaminophen (APAP) particles in simulated gastric fluid (USP apparatus 2)
Protocol: (§1) The particles were subjected to dissolution tests in simulated gastric fluid (SGF) at pH 1.2 simulated intestinal fluid (SIF) at pH 6.8. The SGF and SIF were prepared per USP specs (USP XXII-NF XVII, pp. 1788-1789, 1990). Selected samples were also tested in SGF at pH 5.0, in pH 1.2 and 5.0 acids, and in pH 6.8 buffer. The pH 1.2 and 5.0 acids were prepared the same way as the corresponding SGF's, except no enzymes were added. Similarly, the pH 6.8 buffer was prepared the same way as the SIF, except no enzyme was added. The dissolution test was conducted using apparatus 2 assembly, as specified by USP (USP XXII-NF XVII, pp. 1578-1579, 1990). The nominal capacity of the dissolution vessel was 1000 mL. A peddle was used as the stirring element at a rotational speed of 50 rpm. The temperature was maintained at 37°+0.5° C. using a circulating water bath. The solution was sampled at 0.5, 1, and 2 hours for the test in SGF, and at 1, 3, and 6 hours for the test in SIF. A 10-mL aliquot was drawn at each sampling time through a 35 micron filter. The aliquot was then filtered again through a 0.45 micron filter for HPLC analysis to determine its drug content. An HPLC method was developed for the determination of acetaminophen in zein-coated powders and in dissolution samples from various media. Zein-coated powders were dissolved in methanol for analysis. An acetaminophen USP reference standard was used for the quantitation. For zein-coated drug analysis, the standard was prepared in methanol. For dissolution sample analysis, the standard was prepared in water. Each sample or standard solution was then filtered through a 0.45 micron filter for HPLC analysis. A C-18 column connected with an UV detector at 244 nm was used for the HPLC analysis. The mobile phase was water/methanol (85/15, v/v) at a flow rate of 1.0 mL/min. The analysis time was 18-20 min/injection.

[3] = Dissolution of acetaminophen (APAP) particles in simulated intestinal fluid (USP apparatus 2)
Protocol: as §1

[4] = Dissolution of amoxicillin particles in simulated intestinal fluid
Protocol: (§2) The particles were subjected to dissolution tests in simulated gastric fluid (SGF) at pH 1.2 simulated intestinal fluid (SIF) at pH 6.8. The SGF and SIF were prepared per USP specs (USP XXII-NF XVII, pp. 1788-1789, 1990). Selected samples were also tested in SGF at pH 5.0, in pH 1.2 and 5.0 acids, and in pH 6.8 buffer. The pH 1.2 and 5.0 acids were prepared the same way as the corresponding SGF's, except no enzymes were added. Similarly, the pH 6.8 buffer was prepared the same way as the SIF, except no enzyme was added. The dissolution test was conducted using apparatus 2 assembly, as specified by USP (USP XXII-NF XVII, pp. 1578-1579, 1990). The nominal capacity of the dissolution vessel was 1000 mL. A peddle was used as the stirring element at a rotational speed of 50 rpm. The temperature was maintained at 37°+0.5° C. using a circulating water bath. The solution was sampled at 0.5, 1, and 2 hours for the test in SGF, and at 1, 3, and 6 hours for the test in SIF. A 10-mL aliquot was drawn at each sampling time through a 35 micron filter. […] The particles manufactured in this example were subjected to dissolution testing as described in Example 1. Selected particle samples were subjected to sequential dissolution testing as described in Example 2. […] The column was C-18. […] The detector was UV at 230 nm. A pure amoxicillin trihydrate (AMX1), which was calibrated with an USP reference standard, was used as the working standard. For dissolution sample analysis, the standard was dissolved in the mobile phase. For zein-coated drug analysis, both the sample and the standard were dissolved by mixing with 5 mL methanol for 2-5 minutes and then diluting with the mobile phase to the desired level.

[5] = Dissolution of amoxicillin particles in simulated gastric fluid
Protocol: as §2

[6] = Suspension stability study: APAP released in syrup
Source text: The concept that stability in an aqueous suspension is primarily controlled by the exterior coating layer is supported by studies performed on acetaminophen (APAP). Acetaminophen was coated with various combinations of zein and Eudragit®. […] The composition of these syrups was similar to those used for the amoxicillin suspensions (compare Tables 12 and 14). A description of the manufacture of the APP27 particles is set forth above in Example 3; for APP32 particles in Example 3; for APP42 particles in Example 5; and for APP46 particles in Example 5. The particles identified in the tables as as "APAP" are uncoated acetaminophen. APP27 and 32 were suspended at 250 mg per 5 ml in a syrup at pH 8.1 and APP42 and 46 were each suspended at the same concentration in syrups at both pH 5.0 and 8.1 respectively. For analysis of samples in sucrose-based syrups, the samples were diluted 50-400 folds with water and then filtered through a 0.45 micron filter for HPLC analysis. The dilution was necessary for proper UW detection and to minimize the effect of matrix on column performance. The methanol content of the aqueous mobile phase was adjusted between 2 and 15%, pending the performance of the C-18 column used.

CC1(C)S[C@@H]2[C@H](NC(=O)[C@H](N)c3ccc(O)cc3)C(=O)N2[C@H]1C(=O)O [AMX1, amoxicillin trihydrate]
Percent Amoxicillin Released in Syrup ([1]; Syrup at pH 5.0, 1 Day): 9.3%
Percent Amoxicillin Released in Syrup ([1]; Syrup at pH 5.0, 1 Hr): 7.4%
Percent Amoxicillin Released in Syrup ([1]; Syrup at pH 5.0, 7 Days): 11.3%
Percent Amoxicillin Released in Syrup ([1]; Syrup at pH 5.0, 14 Days): 9.0%
Percent Amoxicillin Released in Syrup ([1]; Syrup at pH 6.5, 1 Day): 9.6%
Percent Amoxicillin Released in Syrup ([1]; Syrup at pH 6.5, 1 Hr): 8.6%
Percent Amoxicillin Released in Syrup ([1]; Syrup at pH 6.5, 7 Days): 14.6%
Percent Amoxicillin Released in Syrup ([1]; Syrup at pH 6.5, 14 Days): 10.9%
Percent Amoxicillin Released in Syrup ([1]; Syrup at pH 8.5, 1 Day): 2.8%
Percent Amoxicillin Released in Syrup ([1]; Syrup at pH 8.5, 1 Hr): 19.5%
Percent Amoxicillin Released in Syrup ([1]; Syrup at pH 8.5, 7 Days): 9.6%
Percent Amoxicillin Released in Syrup ([1]; Syrup at pH 8.5, 14 Days): 5.7%

CC(=O)Nc1ccc(O)cc1 [APP21, Acetaminophen]
Cumulative % Release of APAP, 0.5 hr ([2]; In SGF, pH 1.2, 0.5 hr): 97%
Cumulative % Release of APAP, 1 hr ([2]; In SGF, pH 1.2, 1 hr): 97%
Cumulative % Release of APAP, 2 hr ([2]; In SGF, pH 1.2, 2 hr): 98%
release of APAP in simulated gastric fluid (in words) ([2]; SGF pH 1.2): dissolved in gastric fluid very quickly
Cumulative % Release of APAP, 1 hr ([3]; In SIF, pH 6.8, 1 hr): 98%
Cumulative % Release of APAP, 3 hr ([3]; In SIF, pH 6.8, 3 hr): 101%
Cumulative % Release of APAP, 6 hr ([3]; In SIF, pH 6.8, 6 hr): 102%
release of APAP in simulated intestinal fluid (in words) ([3]; SIF pH 6.8): dissolved fairly rapidly

CC1(C)S[C@@H]2[C@H](NC(=O)[C@H](N)c3ccc(O)cc3)C(=O)N2[C@H]1C(=O)O [AMX23, amoxicillin]
Cumulative % Release of Amoxicillin, 1 hr ([4]; In SIF, pH 6.8, 1 hr): 83%
Cumulative % Release of Amoxicillin, 3 hr ([4]; In SIF, pH 6.8, 3 hr): 91%
Cumulative % Release of Amoxicillin, 6 hr ([4]; In SIF, pH 6.8, 6 hr): 93%
release of amoxicillin in simulated intestinal fluid (in words) ([4]; SIF pH 6.8): quite rapidly
Cumulative % Release of Amoxicillin, 0.5 hr ([5]; In SGF, pH 1.2, 0.5 hr): 53%
Cumulative % Release of Amoxicillin, 1 hr ([5]; In SGF, pH 1.2, 1 hr): 45%
Cumulative % Release of Amoxicillin, 2 hr ([5]; In SGF, pH 1.2, 2 hr): 36%
release of amoxicillin in simulated gastric fluid (in words) ([5]; SGF pH 1.2): rapid release

CC(=O)Nc1ccc(O)cc1 [APAP, acetaminophen]
Percent APAP Released in Syrup ([6]; Table 15, syrup at pH 8.1, 1 Hr): 20.0%
Percent APAP Released in Syrup ([6]; Table 15, syrup at pH 8.1, 28 Days): 23.0%
Percent APAP Released in Syrup ([6]; Table 16, syrup pH 5.0, 1 Day): 31.9%
Percent APAP Released in Syrup ([6]; Table 16, syrup pH 5.0, 1 Hr): 20.2%
Percent APAP Released in Syrup ([6]; Table 16, syrup pH 5.0, 7 Days): 26.5%
Percent APAP Released in Syrup ([6]; Table 16, syrup pH 5.0, 14 Days): 24.9%
Percent APAP Released in Syrup ([6]; Table 16, syrup pH 8.1, 1 Day): 27.5%
Percent APAP Released in Syrup ([6]; Table 16, syrup pH 8.1, 1 Hr): 7.7%
Percent APAP Released in Syrup ([6]; Table 16, syrup pH 8.1, 7 Days): 29.8%
Percent APAP Released in Syrup ([6]; Table 16, syrup pH 8.1, 14 Days): 28.0%
